{"source": "patent US4088778A", "about": "“Method for the treatment of hypertension” (priority 1975, dated 1978)", "key": {"[1]": {"assay": "Clinical Test I, double blind: blood pressure", "type": "in vivo, human patients", "conditions": "for Maximum Blood Pressure in Hypertensives, Average Value ± S.D. / Maximum Blood Pressure, Average Value±S.D.: in mmHg (unit assumed)", "description": "94 patients of hypertension or arteriosclerosis having subjective symptoms were tested, and some of them suffered from complications such as ischemia heart disease, hypertensive heart disease and encephalomalacia.\nAs the active drug, there were employed hard capsules, each containing 100 mg of TN.\nTwo capsules were orally administered at one time, and the administration was conducted three times a day after eating. The period of the administration was principally 4 weeks or 6 weeks. During this period, the administration was performed continuously. Combined administration of drugs having the same function as that of TN (vitamin E drugs, nicotinic acid, its derivatives and peripheral vasolidators) was prohibited. Drugs which had been continuously administered since before the start of the administration of TN were similarly administered according to the disease case and symptom, and change of the prescription during the test was avoided.\nWith respect to data collected separately in the TN group and the P group, the significant difference was examined according to the statistical method."}, "[2]": {"assay": "Clinical Experiment II: kidney function test", "type": "in vivo, human patients", "conditions": "in mg/dL (unit assumed)", "description": "(§1) 75 patients of hypertension or arteriosclerosis having subjective symptoms were tested. Some of them suffered from complications such as ischemia heart disease and cerebral thrombosis. They are detailed in Table 11.\n(§2) Two capsules were administered at one time, and the administration was conducted 3 times per day after eating. The duration of the continuous administration was 4 weeks. Combined use of drugs having the same functions as those of TN (vitamin E drugs, nicotinic acid, its derivatives and peripheral vasolidators) and minor tranquilizers was prohibited.\nThe kidney function test results are shown in Table 17, from which it will readily be understood that the variation of BUN values was within the normal region."}, "[3]": {"assay": "Clinical Experiment II: improvement of subjective symptoms", "type": "in vivo, human patients", "description": "as §1, §2\nChanges of various subjective symptoms of patients of hypertension were collectively examined, and at the time of termination of the administration, the degrees of improvements were judged and evaluated in both the TN administered group and the P group, to obtain results shown in Table 22."}, "[4]": {"assay": "Clinical Experiment II: urine test", "type": "in vivo, human patients", "description": "as §1, §2"}, "[5]": {"assay": "Acute toxicity on rats", "type": "in vivo", "conditions": "mice and rats, maximum amount that can be administered", "excerpt": "Toxicities of TN and TA will now be described."}, "[6]": {"assay": "Clinical Test I, double blind: general improvement", "type": "in vivo, human patients", "conditions": "for General improvement: Not Changed / General improvement: Partial Improvement / General improvement: Remarkable Improvement / General improvement: Slight Improvement / General improvement: Worsened: number of patients", "description": "Two capsules were orally administered at one time, and the administration was conducted three times a day after eating. The period of the administration was principally 4 weeks or 6 weeks. During this period, the administration was performed continuously. Combined administration of drugs having the same function as that of TN (vitamin E drugs, nicotinic acid, its derivatives and peripheral vasolidators) was prohibited.\nThe general improvement was evaluated by the attendant physician based on subjective symptoms and test results according to the following scale:\ni: remarkable improvement\nWhen 2, 4 or 6 weeks had passed from the start of the administration, the improvement was evaluated based on the symptoms before the administration."}, "[7]": {"assay": "Hypotensive effect on rats of spontaneous hypertension, old SHR", "type": "in vivo, rats (9-month-old male SHR)", "conditions": "100 mg/kg TN orally once a day", "description": "(B) Hypotensive Effect on Rats of Spontaneous Hypertension:\nExperiments were conducted by using two classes of rats of spontaneous hypertension (hereinafter referred to as \"SHR\"; provided by Nippon Rat K.K.) differing in the age. In the first experiment, 9-month-old chronic […] SHR (hereinafter referred to as \"old SHR\"), and in the second experiment, 7-week-old SHR in which hypertension was advancing (hereinafter referred to as \"young SHR\") was used.\n(1) Experiment on Old SHR:\n40 of 9-month-old male SHR (having a body weight of 360 to 450 g) were divided into 10 groups, each consisting of 4 rats, and each group was placed in a cage. One of the rats in each cage was used as the non-administered control animal, and 20 mg/Kg of TN, 100 mg/Kg of TN and 88 mg/Kg of TA (equimolar to 100 mg/Kg of TN) were administered to the remaining 3 rats, respectively. Each hypotensive agent was orally administered once a day over a period of 4 weeks in the form of a suspension in gum arabic. Gum arabic solution was administered to the Control (non-administered) group. Simultaneously with initiation of the administration, drinking water was exchanged from service water to a 1% aqueous solution of sodium chloride."}, "[8]": {"assay": "Teratogenetic property test", "type": "in vivo, pregnant mice or pregnant rats", "conditions": "orally, 100 to 1200 mg/Kg", "excerpt": "(C) Teratogenetic Property Test:"}, "[9]": {"conditions": "2 weeks, N 34, TN 200 mg three times a day"}, "[10]": {"conditions": "4 weeks, N 38, TN 200 mg three times a day"}, "[11]": {"conditions": "6 weeks, N 20, TN 200 mg three times a day"}, "[12]": {"conditions": "before administration, N 43, all patients (Table 6)"}, "[13]": {"conditions": "conclusion of both clinical experiments"}}}
{"smiles": "Cc1c(C)c2c(c(C)c1OC(=O)c1cccnc1)CCC(C)(CCCC(C)CCCC(C)CCCC(C)C)O2", "note": "(racemic) [TN, dl-α-tocopheryl nicotinate]", "values": [{"measurement": "maximum blood pressure in patients of hypertension", "setting": "[1]; 2, 4 or 6 weeks' administration", "result": "lowered by 2, 4 or 6 weeks' administration below the maximum blood pressure before the start of the administration"}, {"measurement": "Maximum Blood Pressure in Hypertensives, Average Value ± S.D.", "setting": "[1]; 2 weeks, N 28, P < 0.05 vs before", "result": "143.8 ± 21.0"}, {"measurement": "Minimum Blood Pressure, Average Value±S.D.", "setting": "[1]; [9]", "result": "82.4±11.4"}, {"measurement": "Maximum Blood Pressure, Average Value±S.D.", "setting": "[1]; [9]", "result": "139.7±21.1"}, {"measurement": "Maximum Blood Pressure in Hypertensives, Average Value ± S.D.", "setting": "[1]; 4 weeks, N 29, P < 0.02 vs before", "result": "143.1 ± 21.1"}, {"measurement": "Minimum Blood Pressure, Average Value±S.D.", "setting": "[1]; [10]", "result": "80.6±10.3"}, {"measurement": "Maximum Blood Pressure, Average Value±S.D.", "setting": "[1]; [10]", "result": "140.0±20.3"}, {"measurement": "Maximum Blood Pressure in Hypertensives, Average Value ± S.D.", "setting": "[1]; 6 weeks, N 13, P < 0.05 vs before", "result": "139.2 ± 16.8"}, {"measurement": "Minimum Blood Pressure, Average Value±S.D.", "setting": "[1]; [11]", "result": "79.1±7.0"}, {"measurement": "Maximum Blood Pressure, Average Value±S.D.", "setting": "[1]; [11]", "result": "138.1±15.2"}, {"measurement": "patients in whom administration was interrupted", "setting": "[1]; TN 200 mg three times a day, 4 or 6 weeks, P group 3 patients", "result": 2, "unit": "patients"}, {"measurement": "Minimum Blood Pressure, Average Value±S.D.", "setting": "[1]; [12]", "result": "84.4±13.7"}, {"measurement": "Maximum Blood Pressure, Average Value±S.D.", "setting": "[1]; [12]", "result": "147.6±23.6"}, {"measurement": "Maximum Blood Pressure in Hypertensives, Average Value ± S.D.", "setting": "[1]; before administration, same 13 patients as 6 weeks", "result": "151.2 ± 28.9"}, {"measurement": "Maximum Blood Pressure in Hypertensives, Average Value ± S.D.", "setting": "[1]; before administration, same 28 patients as 2 weeks", "result": "151.0 ± 22.1"}, {"measurement": "Maximum Blood Pressure in Hypertensives, Average Value ± S.D.", "setting": "[1]; before administration, same 29 patients as 4 weeks", "result": "154.6 ± 24.8"}, {"measurement": "BUN, Average Value", "setting": "[2]; after administration, N 27, S.D. ±8.48", "result": 14.99}, {"measurement": "BUN, Average Value", "setting": "[2]; before administration, N 31, S.D. ±6.23", "result": 14.74}, {"measurement": "Improvement of subjective symptoms: Improvement Ratio", "setting": "[3]; P group 52.94, P < 0.05", "result": 86.36, "unit": "%"}, {"measurement": "degree of improvement of subjective symptoms versus P group", "setting": "[3]; [13]", "result": "higher than in the P group"}, {"measurement": "improving rush of blood, dizzy feeling, stiffness in the shoulders, stiffness in the nape, heaviness in the head and insomnia", "setting": "[3]; [13]", "result": "especially good effects"}, {"measurement": "degree of improvement of subjective symptoms versus P group", "setting": "[3]; level of significance lower than 5%", "result": "excellent over that in the P group at a level of significance lower than 5%"}, {"measurement": "Improvement of subjective symptoms: Not Changed", "setting": "[3]; number of patients, total 22", "result": 3}, {"measurement": "Improvement of subjective symptoms: Partial Improvement", "setting": "[3]; number of patients, total 22", "result": 6}, {"measurement": "Improvement of subjective symptoms: Remarkable Improvement", "setting": "[3]; number of patients, total 22", "result": 7}, {"measurement": "Improvement of subjective symptoms: Slight Improvement", "setting": "[3]; number of patients, total 22", "result": 6}, {"measurement": "Improvement of subjective symptoms: Worsened", "setting": "[3]; number of patients, total 22", "result": 0}, {"measurement": "urine specific Gravity, Average Value", "setting": "[4]; after administration, N 25, S.D. ±5.34", "result": 1017.92}, {"measurement": "urine specific Gravity, Average Value", "setting": "[4]; before administration, N 25, S.D. ±5.56", "result": 1017.56}, {"measurement": "animals killed in acute toxicity test", "setting": "[5]", "result": "no test animal was killed"}, {"measurement": "general improvement ratio over time", "setting": "[6]; 2, 4, 6 weeks", "result": "the improvement ratio was increased every two weeks"}, {"measurement": "General improvement: Improvement Ratio", "setting": "[6]; 2 weeks, total 38, P group 68.6 %", "result": 73.7, "unit": "%"}, {"measurement": "significance of general improvement versus P group", "setting": "[6]; 4 to 6 weeks", "result": "significantly better results were obtained in the TN group than in the P group"}, {"measurement": "General improvement: Improvement Ratio", "setting": "[6]; 4 weeks, total 39, P group 61.1 %, P = 0.0127", "result": 87.2, "unit": "%"}, {"measurement": "General improvement: Improvement Ratio", "setting": "[6]; 6 weeks, total 21, P group 63.6 %, P = 0.0094", "result": 95.2, "unit": "%"}, {"measurement": "General improvement: Not Changed", "setting": "[6]; 2 weeks, total 38", "result": 9}, {"measurement": "General improvement: Partial Improvement", "setting": "[6]; 2 weeks, total 38", "result": 13}, {"measurement": "General improvement: Remarkable Improvement", "setting": "[6]; 2 weeks, total 38", "result": 6}, {"measurement": "General improvement: Slight Improvement", "setting": "[6]; 2 weeks, total 38", "result": 9}, {"measurement": "General improvement: Worsened", "setting": "[6]; 2 weeks, total 38", "result": 1}, {"measurement": "General improvement: Not Changed", "setting": "[6]; 4 weeks, total 39", "result": 5}, {"measurement": "General improvement: Partial Improvement", "setting": "[6]; 4 weeks, total 39", "result": 14}, {"measurement": "General improvement: Remarkable Improvement", "setting": "[6]; 4 weeks, total 39", "result": 6}, {"measurement": "General improvement: Slight Improvement", "setting": "[6]; 4 weeks, total 39", "result": 14}, {"measurement": "General improvement: Worsened", "setting": "[6]; 4 weeks, total 39", "result": 0}, {"measurement": "General improvement: Not Changed", "setting": "[6]; 6 weeks, total 21", "result": 1}, {"measurement": "General improvement: Partial Improvement", "setting": "[6]; 6 weeks, total 21", "result": 7}, {"measurement": "General improvement: Remarkable Improvement", "setting": "[6]; 6 weeks, total 21", "result": 8}, {"measurement": "General improvement: Slight Improvement", "setting": "[6]; 6 weeks, total 21", "result": 5}, {"measurement": "General improvement: Worsened", "setting": "[6]; 6 weeks, total 21", "result": 0}, {"measurement": "difference of the blood pressure between control and administered group", "setting": "[7]; 3rd week", "result": "about 30 mm Hg"}, {"measurement": "lowering of blood pressure on the average", "setting": "[7]; after 1 week", "result": 15, "unit": "mm Hg"}, {"measurement": "influences on mother animals, embryos and newborn babies", "setting": "[8]", "result": "no influences were observed"}, {"measurement": "teratogenetic property", "setting": "[8]", "result": "no teratogenetic property"}]}
